Test results taken from paper PMC8192908 (Scientific Reports, 2021).
Several values for one entry are separate records, joined by “and”; a condition that tells them apart may be missing. Identical values can stand only once. Marks after values point to notes of the source that are not given here.

How the values were obtained:
[1] = molecular target: T1, PDE10A-PTXm-1 complex (Homo sapiens, UniProt Q9Y233); experiment: Competitive ITC: PTX titrated against PDE10A-PTXm-1 complex; format: binding
T1 construct: Catalytic domain of each protein was cloned between BamHI and XhoI restriction sites in; 6xHis-SUMO (N, cleaved yes); made in house; host or cells: E. coli Rosetta 2 (DE3)

[2] = system: ejaculated spermatozoa; experiment: Sperm motility in ejaculated spermatozoa (swim-up, manual assessment); format: cell-based, human; conditions: PTXm-1 0.25 mM; for progressive motility vs controls / total motility vs controls: 1 h; for progressive motility vs controls / total motility vs controls / percentage of total motile spermatozoa vs controls: PTX 1 mM; for percentage of total motile spermatozoa vs controls: 1 h and 24 h
Description: (§1) For the study, subjects with 2–7 days of sexual abstinence were asked to provide their ejaculates by masturbation. After the completion of semen analysis (WHO, 2010), the leftover semen sample from each subject was used for experiment within 1 h of collection and was equally divided into four groups. The semen samples were washed twice with EBSS media (with bicarbonate buffer) by centrifuging at 500 g for 8 min to remove the seminal plasma. […] The EBSS medium used was with bicarbonate buffer. The samples were incubated for 1 h at 37 °C and 5% CO2. The overlay containing motile fraction of capacitated spermatozoa were collected carefully without disturbing the pellet and used for further analysis. The swim-up fraction containing motile spermatozoa were assessed for motility using manual method and sperm motion characteristics using computer assisted sperm analysis (CASA) as described earlier. […] Percentage of spermatozoa with total and progressive motility was calculated. For CASA, 8 µL sperm suspension was placed on a clean microscopic slide, covered with coverslip (18 mm × 18 mm).

[3] = system: spermatozoa from asthenozoospermic semen samples; experiment: Sperm kinematics by computer assisted semen analysis (CASA); format: cell-based, human; conditions: 1 h after incubation; PTX 1 mM, PTXm-1 0.25 mM; mean ± SE, N = 28
Description: as §1

[4] = system: spermatozoa from normozoospermic samples; experiment: Calcium ionophore-induced acrosome reaction assay; format: cell-based, human; conditions: PTX 1 mM, PTXm-1 0.25 mM
Description: The ionophore-induced acrosome reaction was assessed using a method described earlier. The swim-up fraction collected (at 1 and 2 h after incubation) from various groups were incubated with calcium ionophore A23187 (Sigma-Aldrich, Cat. No. C7522) at 37 °C for 1 h (N = 28, normozoospermic). Sperm suspension was washed with phosphate buffered solution (PBS), centrifuged at 300 g for 10 min and fixed on a coverslip using methanol. The spermatozoa were stained with Fluorescein isothiocyanate-conjugated Pisum sativum agglutinin (FITC-PSA, Sigma-Aldrich, Cat. No. L0770), washed with Milli-Q water, counterstained with propidium iodide (PI) and then mounted on slide using mounting media. Percentage of acrosome reacted spermatozoa (without green florescence in acrosome region) were counted in 500 spermatozoa by observing under fluorescence microscope (400x).

[5] = system: intracellular cAMP in spermatozoa; experiment: Intracellular cAMP in spermatozoa; format: cell-based, human; conditions: 1 h after incubation; PTX 1 mM, PTXm-1 0.25 mM
Description: Sperm suspension was centrifuged at 800 g for 10 min and supernatant obtained was frozen at − 80 °C until further analysis. The cAMP level was measured using cAMP test kit as explained by the manufacturers (Elabscience®, Cat. No. E-EL-0056) as described in our earlier report. Briefly, 50 μL of cAMP detection standard or test samples were added to each well of the multi well plate, followed by addition of biotinylated detection solution (50 μL). After 45 min of incubation at 37 °C, the solutions from each well were decanted. The wells of the plate were further washed 3 times using wash buffer and then incubated with 100 μL horse radish peroxidase (HRP) conjugate for 30 min at 37 °C. Further, each well of the multi well plate was washed repeatedly (5 times) and then incubated with 90 μL substrate reagent for 15 min at 37 °C. Finally, the reaction was stopped by adding 50 μL of stop solution and, immediately OD450nm of the each well was measured using Skanit software 5.0 (Multiskan, Photometer, Thermoscientific). The assay was performed in duplicates and standard curve was plotted. The concentration of cAMP was extrapolated from the standard curve.

[6] = system: tyrosine phosphorylated sperm proteins; experiment: Tyrosine phosphorylation of sperm proteins by immunofluorescence; format: cell-based, human; conditions: PTX 1 mM, PTXm-1 0.25 mM; control 16%
Description: The cells were incubated with blocking solution (PBS containing 1% BSA and 0.1% Tween-20) for 1 h followed by incubation at 4 °C overnight with anti phospho-tyrosine antibody (1:300 dilution, Clone PY20, Merck Millipore, Cat. No. 05–947). […] No. S6MQT0101), cells were counterstained with DAPI and observed under fluorescence microscope (1000x, oil immersion). The number of tyrosine phosphoprotein positive spermatozoa were counted in total of 500 spermatozoa and the result was expressed in percentage spermatozoa.

[7] = system: spermatozoa, oocytes and embryos of Swiss albino mice; experiment: In vitro fertilization and pre-implantation embryo development; format: cell-based; conditions: for Total cell number (Mean ± SE): blastocysts, PTX 1 mM, PTXm-1 0.25 mM, control 92.78 ± 6.58; for Hatching rate at 120 h post insemination / Blastocyst rate at 120 h post insemination / Fertilization rate at 16 h post insemination: sperm treated with PTX 1 mM or PTXm-1 0.25 mM; for Hatching rate at 120 h post insemination: control 64.56; for Blastocyst rate at 120 h post insemination: control 81.67; for Fertilization rate at 16 h post insemination: control 83.56
Description: The adult female Swiss albino mice were stimulated using 5 IU of pregnant mare serum gonadotropin (PMSG) and 10 IU of human chorionic gonadotropin (hCG) at an interval of 48 h. At 13 h post hCG administration, the cumulus oocyte complexes (COCs) were collected by teasing the oviduct into M2 medium. To assess the effect of PTXm-1 on fertilization outcome and the early embryo development, Swiss albino mice were used. The male mice (6 to 8 weeks, N = 6 per trial, total 3 trials) were humanely sacrificed by cervical dislocation and cauda was dissected out. The IVF was performed as described in our earlier report. Briefly, the cauda was teased in a Petri dish containing EBSS (with 0.1% BSA) culture media and incubated at 37 °C, 5% CO2 incubator. After 2 h of incubation, the spermatozoa were collected and divided equally into 4 parts as C, VC, […] and PTXm-1 groups. The sperm suspension was centrifuged at 250 g for 8 min and the supernatant was discarded. […] The overlay containing motile sperm fraction of were collected carefully without disturbing the pellet, and were used for preparation of insemination droplets (80 µL) which was covered with paraffin oil (Cat. No. 61822605001730, Merck, Germany). The female mice were sacrificed humanely by cervical dislocation (N = 12 per trial, total 3 trials). […] […] Blastocyst rate, hatching rate and, DNA damage and total cell number was assessed in blastocysts.

[8] = asthenozoospermic samples, 24 h

T1 sequence (Q9Y233 718-1035 limits assumed, one chain of several): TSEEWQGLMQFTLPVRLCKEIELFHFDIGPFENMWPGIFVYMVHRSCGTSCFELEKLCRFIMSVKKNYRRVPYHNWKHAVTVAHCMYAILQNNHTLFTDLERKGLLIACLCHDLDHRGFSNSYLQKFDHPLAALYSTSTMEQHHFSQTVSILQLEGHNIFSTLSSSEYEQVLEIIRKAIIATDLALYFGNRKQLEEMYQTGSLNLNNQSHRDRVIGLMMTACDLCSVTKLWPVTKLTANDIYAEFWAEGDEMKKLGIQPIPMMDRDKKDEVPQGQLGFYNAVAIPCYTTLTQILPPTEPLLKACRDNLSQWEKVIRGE

Compound	progressive motility vs controls ([2]; asthenozoospermic samples)	total motility vs controls ([2]; asthenozoospermic samples)	percentage of total motile spermatozoa vs controls ([2]; normozoospermic samples)	ALH [3]	BCF [3]	LIN [3]	VAP [3] [µm/s]	VCL [3]	VSL [3] [µm/s]	WOB [3]	acrosome reacted spermatozoa ([4]; 1 h, control 15.21%) [%]	acrosome reacted spermatozoa ([4]; 2 h) [%]	intracellular cAMP level vs control and vehicle control [5]	spermatozoa with tyrosine phosphorylated proteins [6] [%]	Total cell number (Mean ± SE) [7]	Hatching rate at 120 h post insemination [7]	Blastocyst rate at 120 h post insemination [7]	Fertilization rate at 16 h post insemination [7]	also measured
CC(=O)CCCCn1c(=O)c2c(ncn2C)n(C)c1=O [PTX, pentoxifylline]	significantly higher	significantly higher	increased	5.04 ± 0.06^b µm	8.56 ± 0.17 Hz	28.47 ± 1.01	47.89 ± 0.96	112.60 ± 3.10^b µm/s	28.34 ± 4.67	42.54 ± 0.61^b	24.25	34.28	significantly higher	24.75	88.91 ± 6.56^b,c	67.56^a,c %	86.34^a,c %	95.64% and 95.64^b,c %	Kd ([1]; PDE10A-PTXm-1 complex with 2:1 molar ratio): 350 µM; STR [3]: 66.94 ± 0.98^b,c
COc1ccc2cc(/C=C/C(=O)CCCCn3c(=O)c4c(ncn4C)n(C)c3=O)ccc2c1 [PTXm-1]	significantly higher	significantly higher	increased	5.21 ± 0.09^b µm	9.67 ± 0.19^b,c,d Hz	27.78 ± 1.02	45.90 ± 0.97	109.6 ± 3.27^a µm/s	27.67 ± 3.79	41.87 ± 0.70^b	15.78	25.17	significantly higher	23.25	93.23 ± 8.56^e	66.89^b,d %	88.45^b,d %	96.25% and 96.25^b,c %	decrease of the binding affinity of PTX towards PDE10A in presence of PTXm-1 ([1]; PDE10A-PTXm-1 2:1 molar ratio): ~ eight-fold decrease; percentage of progressively motile spermatozoa vs PTX [2, 8]: considerably (P < 0.001) higher percentage; percentage of total motile spermatozoa vs PTX [2, 8]: considerably (P < 0.001) higher percentage; percentage of progressively motile spermatozoa vs C, VC and PTX ([2]; normozoospermic samples, 24 h): higher percentage of progressively motile spermatozoa
